Measured values published in ChEMBL document CHEMBL1201862, “PubChem BioAssay data set” (2004).
The source made the active and inactive calls.

Assays:
[1] = system: Streptococcus sp. 'group A'; assay: Streptococcus pyogenes SK(-)GAS viability under kanamycin – luminescence, BacTiterGlo, confirmation, counter-screen for streptokinase expression inhibitor project, dose response (AID 1900); assay type: functional, organism-based
[2] = HPDE-C7 pancreatic duct cell viability loss – fluorescence, HTS (AID 430); assay type: functional, cell-based; conditions: Homo sapiens
[3] = microbe, parasite or virus in culture; assay type: functional; conditions: Mycobacterium tuberculosis
[4] = viability loss of HPDE-C7K cells – cell-based, fluorescence, HTS, primary screen (AID 431); assay type: functional; conditions: Homo sapiens
[5] = viability of PTEN-deleted HCT116 cells – cell-based, HCT116 PTEN knockout, dose response (AID 1047); assay type: functional;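 further: HCT116 colon tumor cells with PTEN knocked out; cells exposed to compound for 60 hours before readout; potency for loss of cell viability measured by luminescence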
[6] = viability of HCT116 lacking mutant beta-catenin – cell-based, human colon tumor, dose response (AID 1045); assay type: functional;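 further: HCT116 colon tumor cells with beta catenin knocked out; cells exposed to compound for 60 hours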
[7] = target: T1, Sphingosine 1-phosphate receptor 4 (Homo sapiens, UniProt O95977); assay: Fluorescence dose response cell-based high throughput screening assay for antagonists of the Sphingosine 1-Phosphate Receptor 4 (S1P4). [Related pubchem assays: 1524 (Confirmation in triplicates.), 1510 (Primary screen.)]; assay type: functional
T1 sequence (O95977 whole entry): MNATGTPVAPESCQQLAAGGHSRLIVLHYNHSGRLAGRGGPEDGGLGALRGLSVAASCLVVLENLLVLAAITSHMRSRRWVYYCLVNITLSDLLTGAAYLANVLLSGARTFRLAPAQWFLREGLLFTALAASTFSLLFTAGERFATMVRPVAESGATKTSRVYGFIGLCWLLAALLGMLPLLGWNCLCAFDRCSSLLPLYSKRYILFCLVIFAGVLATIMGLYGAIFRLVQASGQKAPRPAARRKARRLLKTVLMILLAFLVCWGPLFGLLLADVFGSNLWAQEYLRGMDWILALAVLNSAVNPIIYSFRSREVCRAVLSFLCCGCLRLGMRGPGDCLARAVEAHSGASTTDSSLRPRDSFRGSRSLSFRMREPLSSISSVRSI

[8] = target: Sphingosine 1-phosphate receptor 1 (Homo sapiens, UniProt P21453); assay type: functional;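 further: Tango beta-arrestin reporter U2OS cells stimulated with S1P near its EC80; inhibitor potency meaning antagonism of receptor activation by the natural agonist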
Streptococcus = assay: GAS UMAA2166 growth inhibition – luminescence, BacTiterGlo, counter-screen for streptokinase expression inhibitor project, dose response (AID 1915); assay type: functional, organism-based;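 further: potency for reduction of bacterial viability or growth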
[9] = THP-1 cell cytotoxicity, dose response, cytotoxicity control for non-replicating M. tuberculosis project (AID 489025); assay type: functional
[10] = HepG2 cell cytotoxicity, dose response, cytotoxicity control for non-replicating M. tuberculosis project (AID 489018); assay type: functional; conditions: Mycobacterium tuberculosis
[11] = Vero E6 cell cytotoxicity, dose response, cytotoxicity control for non-replicating M. tuberculosis project, secondary assay (AID 492998); assay type: functional, VeroE6; conditions: Vero C1008
[12] = target: T2, Heat shock factor protein 1 (Mus musculus, UniProt P38532); assay: enhancement of HSF1-driven luciferase signal – cell-based, NIH3T3, luminescence, dose retest, confirmation (AID 435004); assay type: functional;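 further: stress induced by proteasome inhibitor MG132 added 30 min after compound; luciferase reporter driven by HSF1 response element in NIH3T3 cells; actives raise luminescence as potentiators of the MG132 stress response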
T2 sequence (P38532 whole entry): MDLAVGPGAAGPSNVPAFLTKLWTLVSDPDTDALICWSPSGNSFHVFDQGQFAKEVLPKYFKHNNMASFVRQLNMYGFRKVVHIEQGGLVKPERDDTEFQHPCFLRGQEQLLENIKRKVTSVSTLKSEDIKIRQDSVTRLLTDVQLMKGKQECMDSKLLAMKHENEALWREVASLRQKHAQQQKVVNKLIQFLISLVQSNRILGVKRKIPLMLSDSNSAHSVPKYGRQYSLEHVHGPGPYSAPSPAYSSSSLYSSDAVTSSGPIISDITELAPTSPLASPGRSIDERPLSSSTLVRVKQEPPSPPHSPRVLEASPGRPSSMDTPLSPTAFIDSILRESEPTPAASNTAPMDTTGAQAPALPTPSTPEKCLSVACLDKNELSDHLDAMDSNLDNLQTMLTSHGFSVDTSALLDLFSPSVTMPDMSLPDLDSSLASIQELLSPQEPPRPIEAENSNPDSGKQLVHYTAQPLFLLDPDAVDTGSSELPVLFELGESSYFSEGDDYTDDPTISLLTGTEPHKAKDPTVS

cells = assay type: functional
[13] = reduction of Shn3 3'UTR-driven luciferase in osteoblasts – cell-based, Clone20 osteoblasts, firefly luciferase, cherry-picked, dose response (AID 624132); assay type: functional;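 further: firefly luciferase luminescence from reporter carrying the Shn3 3'UTR in osteoblasts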
[14] = loss of viability in HepG2 cells – cell-based, CellTiter-Glo, cherry-picked, cytotoxicity control for Shn3 inhibitor project, dose response (AID 624134); assay type: functional
[15] = mitochondrial function rescue without frataxin homolog – Friedreich's ataxia, plus single-dose screen, dose response (AID 1465); assay type: functional;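 further: yeast depleted of Yfh1p frataxin homolog grown on glycerol needing respiration; WST-1 tetrazolium dye reduction as measure of cellular dehydrogenase metabolic activity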
[16] = target: Serine/threonine-protein phosphatase PP1-alpha catalytic subunit (Homo sapiens, UniProt P62136); assay: inhibition of protein phosphatase 1 activity – biochemical, fluorescence, dose response (AID 2403);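 further: phosphatase turnover of OMFP into fluorescent 3-O-methylfluorescein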
[17] = target: Serine/threonine-protein phosphatase (Homo sapiens, UniProt Q9BPW0); assay: Counterscreen for inhibitors of PP1: fluorescence-based biochemical high throughput dose response assay to identify inhibitors of Protein Phosphatase 5 (PP5). [Related pubchem assays: 2034 (Summary (PP5 inhibitors)), 1987 (PP5 inhibitors in singlate), 2235 (PP1 inhibitors in singlate)]
Vasopressin V1a receptor = Vasopressin V1a receptor (Homo sapiens, UniProt P37288); assay: Counterscreen for Oxytocin Receptor (OXTR) agonists: Fluorescence-based cell-based high throughput dose response assay to identify agonists of the vasopressin 1 receptor (V1R). [Related pubchem assays: 2435 (Primary screen (OXTR agonists in singlicate)), 434991 (Counterscreen (V1R agonists in triplicate)), 2482 (Summary (OXTR agonists)) …; assay type: functional
Oxytocin receptor = Oxytocin receptor (Homo sapiens, UniProt P30559); assay: Fluorescence-based cell-based high throughput dose response assay for agonists of the Oxytocin Receptor (OXTR). [Related pubchem assays: 2435 (Primary screen (OXTR agonists in singlicate)), 434991 (Counterscreen (V1R agonists in triplicate)), 2482 (Summary (OXTR agonists)), 434963 (Confirmation screen (OXTR agonists in triplicate))]; assay type: functional
Cytochrome P450 2D6 [18] = target: T3, Cytochrome P450 2D6 (Homo sapiens, UniProt P10635); assay: qHTS Assay for Inhibitors and Substrates of Cytochrome P450 2D6. [Related pubchem assays: 410 ]; assay type: ADME; conditions: read-out: Potency
Cytochrome P450 2C19 = Cytochrome P450 2C19 (Homo sapiens, UniProt P33261); assay: Cytochrome panel assay with activity outcomes. Panel member name: p450-cyp2c19 Compounds with AC50 equal or less than 10 uM are considered active; assay type: functional; conditions: read-out: AC50
Cytochrome P450 2D6 [19] = target: T3, Cytochrome P450 2D6
[20] = target: Voltage-gated inwardly rectifying potassium channel KCNH2 (Homo sapiens, UniProt Q12809); conditions: Potency;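 further: confirmatory quantitative high-throughput screen measuring inhibition of hERG channel activity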
Chain of Voltage-gated inwardly rectifying potassium channel KCNH2 (Q12809 whole entry): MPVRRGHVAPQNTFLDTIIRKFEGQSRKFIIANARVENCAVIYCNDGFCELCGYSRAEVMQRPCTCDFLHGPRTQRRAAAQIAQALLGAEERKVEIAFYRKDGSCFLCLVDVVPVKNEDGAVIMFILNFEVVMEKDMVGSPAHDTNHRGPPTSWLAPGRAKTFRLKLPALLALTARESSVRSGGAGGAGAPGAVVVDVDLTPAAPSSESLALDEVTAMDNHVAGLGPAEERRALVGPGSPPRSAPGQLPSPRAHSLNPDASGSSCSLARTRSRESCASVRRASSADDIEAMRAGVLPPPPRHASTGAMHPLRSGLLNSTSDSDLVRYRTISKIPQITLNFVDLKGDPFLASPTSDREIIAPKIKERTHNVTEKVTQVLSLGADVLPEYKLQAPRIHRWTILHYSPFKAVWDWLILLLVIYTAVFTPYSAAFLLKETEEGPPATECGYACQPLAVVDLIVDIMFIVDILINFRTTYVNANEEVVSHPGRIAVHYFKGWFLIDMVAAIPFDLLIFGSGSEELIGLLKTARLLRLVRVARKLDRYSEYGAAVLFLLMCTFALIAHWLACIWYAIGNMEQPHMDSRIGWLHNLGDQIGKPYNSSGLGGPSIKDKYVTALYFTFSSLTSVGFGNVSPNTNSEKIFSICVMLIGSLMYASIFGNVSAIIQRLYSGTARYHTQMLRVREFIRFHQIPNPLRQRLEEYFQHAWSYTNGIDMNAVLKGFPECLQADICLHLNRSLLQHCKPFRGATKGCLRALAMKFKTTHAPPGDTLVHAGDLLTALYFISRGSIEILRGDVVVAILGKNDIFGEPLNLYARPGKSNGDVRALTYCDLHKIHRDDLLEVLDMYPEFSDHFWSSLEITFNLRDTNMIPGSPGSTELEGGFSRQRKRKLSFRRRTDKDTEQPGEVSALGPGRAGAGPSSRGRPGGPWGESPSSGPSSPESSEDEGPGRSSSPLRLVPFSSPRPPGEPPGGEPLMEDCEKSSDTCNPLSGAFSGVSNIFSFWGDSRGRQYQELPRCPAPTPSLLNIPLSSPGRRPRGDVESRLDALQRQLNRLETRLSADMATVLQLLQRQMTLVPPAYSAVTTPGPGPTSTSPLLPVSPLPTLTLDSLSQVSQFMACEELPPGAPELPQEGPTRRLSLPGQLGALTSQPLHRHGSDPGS

T3 sequence (P10635 whole entry): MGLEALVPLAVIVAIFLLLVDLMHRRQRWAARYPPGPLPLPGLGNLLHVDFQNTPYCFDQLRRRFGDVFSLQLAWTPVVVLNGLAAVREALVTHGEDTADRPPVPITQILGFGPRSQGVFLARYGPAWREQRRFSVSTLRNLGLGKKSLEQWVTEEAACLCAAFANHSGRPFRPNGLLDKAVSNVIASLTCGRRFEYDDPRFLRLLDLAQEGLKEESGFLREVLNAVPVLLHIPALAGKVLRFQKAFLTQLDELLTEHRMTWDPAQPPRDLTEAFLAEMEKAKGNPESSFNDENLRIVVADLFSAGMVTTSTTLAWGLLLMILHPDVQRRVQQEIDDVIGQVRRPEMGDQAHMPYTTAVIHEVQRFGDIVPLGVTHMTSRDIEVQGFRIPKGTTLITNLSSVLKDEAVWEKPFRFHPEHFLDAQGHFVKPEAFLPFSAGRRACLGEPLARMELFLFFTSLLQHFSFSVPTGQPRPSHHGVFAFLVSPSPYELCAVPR
Chain of Serine/threonine-protein phosphatase (Q9BPW0 whole entry): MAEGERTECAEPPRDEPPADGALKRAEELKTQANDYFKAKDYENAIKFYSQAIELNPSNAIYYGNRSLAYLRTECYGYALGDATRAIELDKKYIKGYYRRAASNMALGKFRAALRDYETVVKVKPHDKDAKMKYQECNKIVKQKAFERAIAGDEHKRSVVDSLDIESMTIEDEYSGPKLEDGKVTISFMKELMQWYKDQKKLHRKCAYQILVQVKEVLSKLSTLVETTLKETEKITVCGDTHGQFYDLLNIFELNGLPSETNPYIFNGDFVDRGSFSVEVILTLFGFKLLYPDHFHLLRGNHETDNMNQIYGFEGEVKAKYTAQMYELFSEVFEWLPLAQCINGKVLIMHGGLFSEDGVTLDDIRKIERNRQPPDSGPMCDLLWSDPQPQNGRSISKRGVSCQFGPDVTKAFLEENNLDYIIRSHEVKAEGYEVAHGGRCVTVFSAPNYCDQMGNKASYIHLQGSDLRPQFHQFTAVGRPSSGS
Chain of Vasopressin V1a receptor (P37288 whole entry): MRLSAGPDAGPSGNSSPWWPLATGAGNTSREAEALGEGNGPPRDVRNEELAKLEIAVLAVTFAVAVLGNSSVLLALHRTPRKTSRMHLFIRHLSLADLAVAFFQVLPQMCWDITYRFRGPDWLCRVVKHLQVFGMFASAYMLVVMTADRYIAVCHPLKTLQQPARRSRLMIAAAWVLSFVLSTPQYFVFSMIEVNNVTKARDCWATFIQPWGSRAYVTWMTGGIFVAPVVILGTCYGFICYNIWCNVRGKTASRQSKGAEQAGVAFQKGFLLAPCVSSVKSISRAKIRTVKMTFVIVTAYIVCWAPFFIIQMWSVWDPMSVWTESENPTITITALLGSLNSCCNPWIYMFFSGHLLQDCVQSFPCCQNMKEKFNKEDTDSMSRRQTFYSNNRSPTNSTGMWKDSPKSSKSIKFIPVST
Chain of Serine/threonine-protein phosphatase PP1-alpha catalytic subunit (P62136 whole entry): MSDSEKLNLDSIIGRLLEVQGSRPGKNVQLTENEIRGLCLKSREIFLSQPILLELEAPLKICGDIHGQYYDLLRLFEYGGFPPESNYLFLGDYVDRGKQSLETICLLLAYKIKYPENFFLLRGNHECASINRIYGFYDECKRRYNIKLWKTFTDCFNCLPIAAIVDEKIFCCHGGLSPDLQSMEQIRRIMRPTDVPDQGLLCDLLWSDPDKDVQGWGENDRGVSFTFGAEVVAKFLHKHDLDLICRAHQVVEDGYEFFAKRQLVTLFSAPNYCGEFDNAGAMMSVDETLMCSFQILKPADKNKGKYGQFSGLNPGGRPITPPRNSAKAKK
Chain of Sphingosine 1-phosphate receptor 1 (P21453 whole entry): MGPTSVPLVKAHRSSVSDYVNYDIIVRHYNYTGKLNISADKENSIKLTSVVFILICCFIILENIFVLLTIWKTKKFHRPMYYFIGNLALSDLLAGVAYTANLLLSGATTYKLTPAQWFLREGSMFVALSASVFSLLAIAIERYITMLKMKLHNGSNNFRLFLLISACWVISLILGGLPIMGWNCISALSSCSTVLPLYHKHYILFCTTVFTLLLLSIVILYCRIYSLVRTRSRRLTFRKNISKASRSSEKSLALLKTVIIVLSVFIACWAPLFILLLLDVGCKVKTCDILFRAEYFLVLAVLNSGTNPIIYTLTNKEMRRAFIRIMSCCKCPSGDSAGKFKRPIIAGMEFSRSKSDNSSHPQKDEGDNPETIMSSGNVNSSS
Chain of Oxytocin receptor (P30559 whole entry): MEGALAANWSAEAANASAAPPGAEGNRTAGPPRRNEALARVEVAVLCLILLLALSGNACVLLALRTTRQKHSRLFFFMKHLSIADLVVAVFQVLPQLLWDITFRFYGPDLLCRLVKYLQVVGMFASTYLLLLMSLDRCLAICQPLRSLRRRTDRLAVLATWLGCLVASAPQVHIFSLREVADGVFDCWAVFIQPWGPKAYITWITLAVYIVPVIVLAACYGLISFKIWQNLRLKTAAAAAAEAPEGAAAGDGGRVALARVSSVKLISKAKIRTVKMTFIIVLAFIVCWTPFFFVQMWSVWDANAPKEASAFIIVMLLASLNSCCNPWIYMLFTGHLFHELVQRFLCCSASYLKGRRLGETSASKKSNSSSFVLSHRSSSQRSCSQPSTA
Chain of Cytochrome P450 2C19 (P33261 whole entry): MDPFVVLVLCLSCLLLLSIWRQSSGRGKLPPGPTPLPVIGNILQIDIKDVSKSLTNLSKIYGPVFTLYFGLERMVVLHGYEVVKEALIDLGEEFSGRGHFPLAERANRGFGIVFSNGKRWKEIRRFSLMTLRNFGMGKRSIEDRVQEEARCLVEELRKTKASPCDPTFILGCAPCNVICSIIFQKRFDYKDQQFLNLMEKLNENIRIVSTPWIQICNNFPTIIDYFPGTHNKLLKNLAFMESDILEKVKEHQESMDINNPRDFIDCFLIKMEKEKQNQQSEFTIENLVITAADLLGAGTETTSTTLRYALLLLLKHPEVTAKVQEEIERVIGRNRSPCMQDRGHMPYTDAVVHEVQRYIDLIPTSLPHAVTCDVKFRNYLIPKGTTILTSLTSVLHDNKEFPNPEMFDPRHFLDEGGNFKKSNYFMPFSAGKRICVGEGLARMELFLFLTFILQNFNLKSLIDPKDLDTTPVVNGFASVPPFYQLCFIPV

SMILES: Cc1ccc(S(=O)(=O)Nc2cccc3ncccc23)s1
- EC50 [1]: 1.78 µM (active)
- EC50 [2]: 11.3 µM (active)
- CC50 [3]: 6.47 µM (active)
- EC50 [4]: 10.3 µM (active)
- EC50 [5]: 1.73 µM (active)
- EC50 [6]: 1.46 µM (active)
- IC50 [7]: 611 nM (active)
- IC50 [8]: 1.19 µM (active)
- EC50 (Streptococcus): 10.1 µM (active)
- CC50 [9]: 6.44 µM (active)
- CC50 [10]: 6.97 µM (active)
- CC50 [11]: 4.2 µM (active)
- EC50 [12]: 3.91 µM (active)
- IC50 (cells): 2.01 µM (active)
- AC50 [13]: 3.85 µM (active)
- AC50 [14]: 9.75 µM (active)

SMILES: CCOC(=O)/C(C#N)=C/C=C1/C=CC=CN1C
- EC50 [15]: > 100 µM (active)

SMILES: Cc1ccc(-n2nc(C(=O)O)cc2-c2ccc(Cl)cc2)cc1
- IC50 [16]: 9.65 µM (active)
- IC50 [17]: > 67 µM (not active)

SMILES: CC(Oc1ccc(F)cc1)C(=O)Nc1ccc(S(=O)(=O)NC2=NCCCCC2)cc1 (stereo not given)
- EC50 (Vasopressin V1a receptor): > 29.9 µM (not active)
- EC50 (Oxytocin receptor): > 29.9 µM (not active)

SMILES: O=C(CCc1ccc(O)cc1)c1c(O)cc(O)cc1O [PHLORETIN]
- AC50 (Cytochrome P450 2D6 [18]): 25.1 µM (inconclusive)
- AC50 (Cytochrome P450 2C19): 20 µM (inconclusive)
- AC50 (Cytochrome P450 2D6 [19]): 39.8 µM (inconclusive)
- AC50 [20]: 12.6 µM (inconclusive)
